# Assay results from patent US20220265775A1, “COMPOSITIONS AND METHODS FOR TREATING PULMONARY EDEMA OR LUNG INFLAMMATION” (priority 2019, published 2022).
# Experiments:
# RLE-6TN cells = assay: RLE-6TN cell survival under hyperoxia and recovery, viable cells counted by trypan blue exclusion; type: cell-based, rat
# Protocol: FIG. 7. […] The cells were cultured in DMEM/F12 with 10% FBS in 21% O2 and 5% CO2 overnight. […] The viable cells are counted immediately after 72-hour hyperoxia exposure. Cell viability is assessed with trypan blue. The amount of viable cells under specific conditions is presented as a percentage of the cell number from hyperoxia alone. Data are mean±s.d. of four independent experiments with *=P<0.05; **=P<0.01.
# FIG. 8. […] In both (A) and (B), the number of viable cells under specific conditions is presented as a percentage of the cell number related to hyperoxia alone in the same experiment. Data are mean s.d. of four independent experiments with *=P<0.05; **=P<0.01.
# FIG. 10. HO-1 upregulation is required for T3-increased RLE-6TN cell survival in hyperoxia. […] The cells were then collected for Western Blot analysis. (B) The cells were incubated in 21% O2 and 5% CO2 for 72 hours in the present of HO-1 inhibitor Tin Protoporphyrin IX (10^−6M). […] Cell viability is assessed with trypan blue. The number of viable cells under specific conditions is presented as a percentage of the cell number related to hyperoxia alone. Data are mean±s.d. of three independent experiments with *=P<0.05; **=P<0.01.
# FIG. 11. PI3K inhibitor wortmannin blocked T3-induced cell survival in hyperoxia. […] Cell viability is assessed with trypan blue. The number of viable cells under specific conditions is presented as a percentage of the cell number related to hyperoxia alone. Data are mean±s.d. of four independent experiments with *=P<0.05; **=P<0.01.
# At the end of the hyperoxia exposure period, the viable cells were counted by trypan blue dye exclusion.
# [1] = system: hyperoxia-induced lung injury; assay: Histopathological evaluation of lung sections of hyperoxia-exposed rats; type: in vivo, Sprague Dawley rats; details: 60 hours of hyperoxia, systemic T3 supplementation
# Source text: FIG. 18. […] (A) Control: room air; (B) Hyperoxia; (C) Hyperoxia+T3.
# All experimental protocols for animal treatments were approved by the University of Minnesota Institutional Animal Care and Use Committee. […] The room-air control rats were kept in the University animal housing facility. At the end of hyperoxic exposure, rats were sacrificed by intraperitoneal pentobarbital injection, and the lungs were harvested; the right lobes were allocated for histopathology, measurement of lung tissue myeloperoxidase (MPO) activity and wet-to-dry weight ratio. The left lobes underwent bronchoalveolar lavage (BAL) to determine BAL protein concentrations and differential cell counts.
# Lung tissue was removed and inflation fixed at 20 cm water pressure in 4% paraformaldehyde, paraffin embedded, cut as 5 micron sections and mounted onto poly-L-lysine slides. Sections were deparaffinized in xylene, rehydrated through a graded alcohol series in methanol, and placed in a 98° C. water bath for 30 minutes in citrate buffer (pH 6.0) for antigen retrieval. After quenching with 0.3% hydrogen peroxide in PBS, sections were incubated in normal serum for 30 minutes and for 15 minutes each with Avidin/Biotin Blocking Kit (Vector Laboratories, Inc., Burlingame, Calif.). […]
structure (smiles),measurement,setting,value
"N[C@@H](Cc1cc(I)c(Oc2ccc(O)c(I)c2)c(I)c1)C(=O)O [T3, triiodothyronine]",number of viable AT2 cells at 48 hours of recovery,"RLE-6TN cells; 90% oxygen for 24 or 48 hours, compound present only during recovery in 21% O2",significantly increased the number of viable AT2 cells
same,increase in number of surviving cells compared with hyperoxia control,"RLE-6TN cells; 90% oxygen for 72 hours, 10^−6M",~2.5 fold
same,protective effect on viable AT2 cell number after recovery in room air,"RLE-6TN cells; hyperoxia 72 hours with T3, then room air 72 hours with no supplemental T3",persisted and was of similar magnitude
same,lung morphology (histopathology),[1],persistence of virtually normal lung morphology
